From the supplement of paper PMC10307832

Experiments:
Experiment in all cases: relative viability (nuclei count vs DMSO), 5 days (fraction); higher = more cells survive
IA-LM = tested on: IA-LM
Outline: (§1)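 Values are medians from duplicate plates. Each reflects relative viability, defined as the nuclei count of treated wells over that of vehicle wells. Lung cancer cell lines in 1536-well plates were pin-tool dosed one day after seeding with one drug alone or with a fixed anchor-drug dose plus five library-drug doses (not always all listed) in √10 steps, then fixed, stained and imaged at 4× after 5 days.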

EKVX = tested on: EKVX
Outline: as §1

NCI-H1648 = tested on: NCI-H1648
Outline: as §1

NCI-H1395 = tested on: NCI-H1395
Outline: as §1

NCI-H1755 = tested on: NCI-H1755
Outline: as §1

HCC-44 = tested on: HCC-44
Outline: as §1

LCLC-103H = tested on: LCLC-103H
Outline: as §1

UMC-11 = tested on: UMC-11
Outline: as §1

HCC-15 = tested on: HCC-15
Outline: as §1

EBC-1 = tested on: EBC-1
Outline: as §1

Calu-6 = tested on: Calu-6
Outline: as §1

A549 = tested on: A549
Outline: as §1

NCI-H1299 = tested on: NCI-H1299
Outline: as §1

NCI-H1703 = tested on: NCI-H1703
Outline: as §1

Work on `O=c1cc(-c2cccc3c2Sc2ccccc2S3)oc(N2CCOCC2)c1` + O=C(CCCCCCC(=O)Nc1ccccc1)NO [Vorinostat] (partner 1 µM) yielded a relative viability (IA-LM; first compound 0.253 µM) of 1.31, a relative viability (IA-LM; first compound 0.8 µM) of 0.966 and a relative viability (IA-LM; first compound 2.53 µM) of 0.863. For the same molecule, the relative viability (IA-LM; first compound 8 µM) was 1.08, the relative viability (EKVX; first compound 0.08 µM) was 0.862 and the relative viability (EKVX; first compound 0.253 µM) was 0.839. It also gave a relative viability (EKVX; first compound 0.8 µM) of 0.601, a relative viability (EKVX; first compound 2.53 µM) of 0.675 and a relative viability (EKVX; first compound 8 µM) of 0.569. For the same molecule, the relative viability (NCI-H1648; first compound 0.253 µM) was 0.468, the relative viability (NCI-H1648; first compound 0.8 µM) was 0.65 and the relative viability (NCI-H1648; first compound 8 µM) was 0.457. It also gave a relative viability (NCI-H1395; first compound 0.08 µM) of 0.636, a relative viability (NCI-H1395; first compound 0.253 µM) of 0.625 and a relative viability (NCI-H1395; first compound 0.8 µM) of 0.777. It also gave a relative viability (NCI-H1395; first compound 2.53 µM) of 0.669, a relative viability (NCI-H1395; first compound 8 µM) of 0.759 and a relative viability (NCI-H1755; first compound 0.08 µM) of 0.734. The relative viability (NCI-H1755; first compound 0.253 µM) was 0.797, the relative viability (NCI-H1755; first compound 0.8 µM) was 0.795 and the relative viability (NCI-H1755; first compound 2.53 µM) was 0.709. It also gave a relative viability (NCI-H1755; first compound 8 µM) of 0.8, a relative viability (HCC-44; first compound 0.08 µM) of 1.13 and a relative viability (HCC-44; first compound 0.253 µM) of 1.05. The relative viability (HCC-44; first compound 0.8 µM) was 1.17, the relative viability (HCC-44; first compound 2.53 µM) was 1.05 and the relative viability (HCC-44; first compound 8 µM) was 1.08. It also gave a relative viability (LCLC-103H; first compound 0.08 µM) of 0.757, a relative viability (LCLC-103H; first compound 0.253 µM) of 0.814 and a relative viability (LCLC-103H; first compound 0.8 µM) of 0.66. The relative viability (LCLC-103H; first compound 2.53 µM) was 0.727, the relative viability (LCLC-103H; first compound 8 µM) was 0.864 and the relative viability (UMC-11; first compound 0.08 µM) was 0.312. The relative viability (UMC-11; first compound 0.253 µM) was 0.454, the relative viability (UMC-11; first compound 0.8 µM) was 0.362 and the relative viability (UMC-11; first compound 2.53 µM) was 0.394. It also gave a relative viability (UMC-11; first compound 8 µM) of 0.336, a relative viability (HCC-15; first compound 0.08 µM) of 0.906 and a relative viability (HCC-15; first compound 0.253 µM) of 0.952. For the same molecule, the relative viability (HCC-15; first compound 0.8 µM) was 0.82, the relative viability (HCC-15; first compound 2.53 µM) was 0.722 and the relative viability (HCC-15; first compound 8 µM) was 0.808.

`O=c1cc(N2CCOCC2)oc2c(-c3cccc4c3sc3ccccc34)cccc12` + O=C(c1cc(Cc2n[nH]c(=O)c3ccccc23)ccc1F)N1CCN(C(=O)C2CC2)CC1 [Olaparib] (partner 8 µM) gave a relative viability (IA-LM; first compound 0.01 µM) of 0.883, a relative viability (IA-LM; first compound 0.03162 µM) of 0.941 and a relative viability (IA-LM; first compound 0.1 µM) of 0.766. It also gave a relative viability (IA-LM; first compound 0.3162 µM) of 0.793, a relative viability (IA-LM; first compound 1 µM) of 0.769 and a relative viability (EKVX; first compound 0.01 µM) of 0.769. For the same molecule, the relative viability (EKVX; first compound 0.03162 µM) was 0.807, the relative viability (EKVX; first compound 0.1 µM) was 1.03 and the relative viability (EKVX; first compound 0.3162 µM) was 0.851. For the same molecule, the relative viability (EKVX; first compound 1 µM) was 0.891, the relative viability (EBC-1; first compound 0.01 µM) was 0.709 and the relative viability (EBC-1; first compound 0.03162 µM) was 0.667. The relative viability (EBC-1; first compound 0.1 µM) was 0.757, the relative viability (EBC-1; first compound 0.3162 µM) was 0.788 and the relative viability (EBC-1; first compound 1 µM) was 0.624. The relative viability (NCI-H1648; first compound 0.03162 µM) was 0.787, the relative viability (NCI-H1648; first compound 0.1 µM) was 1.28 and the relative viability (NCI-H1648; first compound 0.3162 µM) was 0.936. For the same molecule, the relative viability (NCI-H1648; first compound 1 µM) was 1.17, the relative viability (Calu-6; first compound 0.01 µM) was 0.614 and the relative viability (Calu-6; first compound 0.03162 µM) was 0.606. For the same molecule, the relative viability (Calu-6; first compound 0.1 µM) was 0.602, the relative viability (Calu-6; first compound 0.3162 µM) was 0.484 and the relative viability (Calu-6; first compound 1 µM) was 0.657. The relative viability (NCI-H1395; first compound 0.03162 µM) was 0.457, the relative viability (NCI-H1395; first compound 0.1 µM) was 0.445 and the relative viability (NCI-H1395; first compound 0.3162 µM) was 0.467. The relative viability (NCI-H1395; first compound 1 µM) was 0.498, the relative viability (A549; first compound 0.01 µM) was 0.429 and the relative viability (A549; first compound 0.03162 µM) was 0.31. The relative viability (A549; first compound 0.1 µM) was 0.295, the relative viability (A549; first compound 0.3162 µM) was 0.356 and the relative viability (A549; first compound 1 µM) was 0.268. For the same molecule, the relative viability (NCI-H1299; first compound 0.01 µM) was 0.961, the relative viability (NCI-H1299; first compound 0.03162 µM) was 0.946 and the relative viability (NCI-H1299; first compound 0.1 µM) was 0.985. For the same molecule, the relative viability (NCI-H1299; first compound 0.3162 µM) was 0.974, the relative viability (NCI-H1299; first compound 1 µM) was 0.917 and the relative viability (NCI-H1755; first compound 0.01 µM) was 0.896. For the same molecule, the relative viability (NCI-H1755; first compound 0.03162 µM) was 0.891, the relative viability (NCI-H1755; first compound 0.1 µM) was 0.869 and the relative viability (NCI-H1755; first compound 0.3162 µM) was 0.848. For the same molecule, the relative viability (NCI-H1755; first compound 1 µM) was 0.883, the relative viability (HCC-44; first compound 0.01 µM) was 1.01 and the relative viability (HCC-44; first compound 0.03162 µM) was 0.909. For the same molecule, the relative viability (HCC-44; first compound 0.1 µM) was 0.917, the relative viability (HCC-44; first compound 0.3162 µM) was 0.973 and the relative viability (HCC-44; first compound 1 µM) was 0.987. It also gave a relative viability (NCI-H1703; first compound 0.01 µM) of 0.548, a relative viability (NCI-H1703; first compound 0.03162 µM) of 0.274 and a relative viability (NCI-H1703; first compound 0.1 µM) of 0.411. The relative viability (NCI-H1703; first compound 0.3162 µM) was 0.446, the relative viability (NCI-H1703; first compound 1 µM) was 0.511 and the relative viability (LCLC-103H; first compound 0.01 µM) was 0.718. It also gave a relative viability (LCLC-103H; first compound 0.03162 µM) of 0.786, a relative viability (LCLC-103H; first compound 0.1 µM) of 0.771 and a relative viability (LCLC-103H; first compound 0.3162 µM) of 0.707. For the same molecule, the relative viability (LCLC-103H; first compound 1 µM) was 0.749, the relative viability (UMC-11; first compound 0.01 µM) was 0.359 and the relative viability (UMC-11; first compound 0.03162 µM) was 0.432. For the same molecule, the relative viability (UMC-11; first compound 0.1 µM) was 0.895, the relative viability (UMC-11; first compound 0.3162 µM) was 0.699 and the relative viability (UMC-11; first compound 1 µM) was 0.404. The relative viability (HCC-15; first compound 0.01 µM) was 0.692, the relative viability (HCC-15; first compound 0.03162 µM) was 0.742 and the relative viability (HCC-15; first compound 0.1 µM) was 0.775. For the same molecule, the relative viability (HCC-15; first compound 0.3162 µM) was 0.74 and the relative viability (HCC-15; first compound 1 µM) was 0.735.
